Our source for the relative viability values is the supplement of paper PMC10307832.

Holding throughout (experiment): relative viability (nuclei count vs DMSO), 5 days (fraction); higher = more cells survive
Compound in the assay “Gemcitabine + OSI-027”: Nc1ccn([C@@H]2O[C@H](CO)[C@@H](O)C2(F)F)c(=O)n1 [Gemcitabine] + COc1cccc2cc(-c3nc([C@H]4CC[C@H](C(=O)O)CC4)n4ncnc(N)c34)[nH]c12 [OSI-027] (partner 0.5 µM)
The method in brief:
(§1)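 Each reported value is a median over duplicate plates. It expresses relative viability: treated-well nuclei count divided by vehicle-well nuclei count. Lung cancer cell lines in 1536-well plates were dosed by pin tool a day after seeding, alone with one drug or with a fixed anchor-drug dose plus five library-drug doses (not always all listed) in √10 steps, and nuclei were counted after 5 days.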

Compound in the assay “Gemcitabine + Trametinib”: Nc1ccn([C@@H]2O[C@H](CO)[C@@H](O)C2(F)F)c(=O)n1 [Gemcitabine] + CC(=O)Nc1cccc(-n2c(=O)n(C3CC3)c(=O)c3c(Nc4ccc(I)cc4F)n(C)c(=O)c(C)c32)c1 [Trametinib] (partner 0.02 µM)
The method in brief: as §1

Compound in the assay “Gemcitabine + Linsitinib”: Nc1ccn([C@@H]2O[C@H](CO)[C@@H](O)C2(F)F)c(=O)n1 [Gemcitabine] + C[C@]1(O)C[C@@H](c2nc(-c3ccc4ccc(-c5ccccc5)nc4c3)c3c(N)nccn32)C1 [Linsitinib] (partner 1 µM)
The method in brief:
as §1

Compound in the assay “Gemcitabine + Lapatinib”: Nc1ccn([C@@H]2O[C@H](CO)[C@@H](O)C2(F)F)c(=O)n1 [Gemcitabine] + CS(=O)(=O)CCNCc1ccc(-c2ccc3ncnc(Nc4ccc(OCc5cccc(F)c5)c(Cl)c4)c3c2)o1 [Lapatinib] (partner 2 µM)
The procedure, abridged:
as §1

In the case of PC-3 [JPC-3], the relative viability in the assay with Gemcitabine + OSI-027 (first compound 0.001 µM) amounted to 0.799; in the assay with Gemcitabine + OSI-027 (first compound 0.003162 µM), 0.656; in the assay with Gemcitabine + OSI-027 (first compound 0.01 µM) it was 0.378; with Gemcitabine + OSI-027 (first compound 0.03162 µM), 0.259; with Gemcitabine + OSI-027 (first compound 0.1 µM), 0.257; in the assay with Gemcitabine + Trametinib (first compound 0.001 µM) it was 0.73. Besides, the relative viability in the assay with Gemcitabine + Trametinib (first compound 0.003162 µM) is 0.424; with Gemcitabine + Trametinib (first compound 0.01 µM), 0.469; with Gemcitabine + Trametinib (first compound 0.03162 µM), 0.426; with Gemcitabine + Trametinib (first compound 0.1 µM), 0.417; with Gemcitabine + Linsitinib (first compound 0.001 µM), 1.03; with Gemcitabine + Linsitinib (first compound 0.003162 µM) it was 0.77. For the same cell line, the relative viability in the assay with Gemcitabine + Linsitinib (first compound 0.01 µM) came to 0.692; with Gemcitabine + Linsitinib (first compound 0.03162 µM), 0.342; with Gemcitabine + Linsitinib (first compound 0.1 µM) it was 0.309; with Gemcitabine + Lapatinib (first compound 0.001 µM), 0.468; with Gemcitabine + Lapatinib (first compound 0.003162 µM) it was 0.416; with Gemcitabine + Lapatinib (first compound 0.01 µM), 0.424. For the same cell line, the relative viability came out at 0.278 with Gemcitabine + Lapatinib (first compound 0.03162 µM) and 0.266 in the assay with Gemcitabine + Lapatinib (first compound 0.1 µM).
With PC-14, the relative viability with Gemcitabine + OSI-027 (first compound 0.001 µM) was determined as 0.595; with Gemcitabine + OSI-027 (first compound 0.003162 µM), 0.156; in the assay with Gemcitabine + OSI-027 (first compound 0.01 µM), 0.0375; with Gemcitabine + OSI-027 (first compound 0.03162 µM), 0.0459; with Gemcitabine + OSI-027 (first compound 0.1 µM), 0.0298; with Gemcitabine + Trametinib (first compound 0.001 µM), 0.885. Moreover, the relative viability came out at 0.279 with Gemcitabine + Trametinib (first compound 0.003162 µM); 0.037 with Gemcitabine + Trametinib (first compound 0.01 µM); 0.0374 in the assay with Gemcitabine + Trametinib (first compound 0.03162 µM); 0.0267 with Gemcitabine + Trametinib (first compound 0.1 µM); 0.936 with Gemcitabine + Linsitinib (first compound 0.001 µM); 0.6 with Gemcitabine + Linsitinib (first compound 0.003162 µM). Moreover, the relative viability was determined as 0.366 in the assay with Gemcitabine + Linsitinib (first compound 0.01 µM); 0.147 with Gemcitabine + Linsitinib (first compound 0.03162 µM); 0.0669 in the assay with Gemcitabine + Linsitinib (first compound 0.1 µM); 0.323 with Gemcitabine + Lapatinib (first compound 0.001 µM); 0.234 in the assay with Gemcitabine + Lapatinib (first compound 0.003162 µM); 0.203 with Gemcitabine + Lapatinib (first compound 0.01 µM). Further, the relative viability in the assay with Gemcitabine + Lapatinib (first compound 0.03162 µM) was determined as 0.0925; with Gemcitabine + Lapatinib (first compound 0.1 µM), 0.0562.
Take RERF-LC-KJ: the relative viability with Gemcitabine + OSI-027 (first compound 0.001 µM) was found to be 0.62; with Gemcitabine + OSI-027 (first compound 0.003162 µM) it was 0.508; with Gemcitabine + OSI-027 (first compound 0.01 µM), 0.418; with Gemcitabine + OSI-027 (first compound 0.03162 µM) it was 0.261; with Gemcitabine + OSI-027 (first compound 0.1 µM) it was 0.225; in the assay with Gemcitabine + Trametinib (first compound 0.001 µM) it was 0.893. The relative viability with Gemcitabine + Trametinib (first compound 0.003162 µM) was 0.827; with Gemcitabine + Trametinib (first compound 0.01 µM) it was 0.845; with Gemcitabine + Trametinib (first compound 0.03162 µM), 0.386; with Gemcitabine + Trametinib (first compound 0.1 µM), 0.24; with Gemcitabine + Linsitinib (first compound 0.001 µM) it was 0.856; with Gemcitabine + Linsitinib (first compound 0.003162 µM) it was 0.939. Further, the relative viability with Gemcitabine + Linsitinib (first compound 0.01 µM) is 0.821; with Gemcitabine + Linsitinib (first compound 0.03162 µM), 0.739; with Gemcitabine + Linsitinib (first compound 0.1 µM), 0.296; with Gemcitabine + Lapatinib (first compound 0.001 µM), 0.858; with Gemcitabine + Lapatinib (first compound 0.003162 µM) it was 0.821; in the assay with Gemcitabine + Lapatinib (first compound 0.01 µM) it was 0.89. The relative viability in the assay with Gemcitabine + Lapatinib (first compound 0.03162 µM) is 0.909; in the assay with Gemcitabine + Lapatinib (first compound 0.1 µM), 0.407.
For SK-LU-1, the relative viability was determined as 0.352 in the assay with Gemcitabine + OSI-027 (first compound 0.001 µM); 0.208 with Gemcitabine + OSI-027 (first compound 0.003162 µM); 0.146 with Gemcitabine + OSI-027 (first compound 0.01 µM); 0.165 in the assay with Gemcitabine + OSI-027 (first compound 0.03162 µM); 0.143 with Gemcitabine + OSI-027 (first compound 0.1 µM); 0.512 with Gemcitabine + Trametinib (first compound 0.001 µM). Moreover, the relative viability with Gemcitabine + Trametinib (first compound 0.003162 µM) was 0.373; with Gemcitabine + Trametinib (first compound 0.01 µM) it was 0.267; in the assay with Gemcitabine + Trametinib (first compound 0.03162 µM), 0.161; with Gemcitabine + Trametinib (first compound 0.1 µM), 0.241; in the assay with Gemcitabine + Linsitinib (first compound 0.001 µM), 1.11; with Gemcitabine + Linsitinib (first compound 0.003162 µM), 0.51. Moreover, the relative viability was found to be 0.245 with Gemcitabine + Linsitinib (first compound 0.01 µM); 0.211 in the assay with Gemcitabine + Linsitinib (first compound 0.03162 µM); 0.219 with Gemcitabine + Linsitinib (first compound 0.1 µM); 0.89 in the assay with Gemcitabine + Lapatinib (first compound 0.001 µM); 0.509 with Gemcitabine + Lapatinib (first compound 0.003162 µM); 0.162 in the assay with Gemcitabine + Lapatinib (first compound 0.01 µM). The relative viability with Gemcitabine + Lapatinib (first compound 0.03162 µM) amounted to 0.134; with Gemcitabine + Lapatinib (first compound 0.1 µM), 0.195.
For SK-MES-1, the relative viability came out at 0.367 with Gemcitabine + OSI-027 (first compound 0.001 µM); 0.195 with Gemcitabine + OSI-027 (first compound 0.003162 µM); 0.142 with Gemcitabine + OSI-027 (first compound 0.01 µM); 0.122 in the assay with Gemcitabine + OSI-027 (first compound 0.03162 µM); 0.127 in the assay with Gemcitabine + OSI-027 (first compound 0.1 µM); 0.605 with Gemcitabine + Trametinib (first compound 0.001 µM). In addition, the relative viability in the assay with Gemcitabine + Trametinib (first compound 0.003162 µM) worked out at 0.551; with Gemcitabine + Trametinib (first compound 0.01 µM) it was 0.25; with Gemcitabine + Trametinib (first compound 0.03162 µM), 0.237; in the assay with Gemcitabine + Trametinib (first compound 0.1 µM), 0.178; with Gemcitabine + Linsitinib (first compound 0.001 µM), 1.07; with Gemcitabine + Linsitinib (first compound 0.003162 µM) it was 0.555. Further, the relative viability with Gemcitabine + Linsitinib (first compound 0.01 µM) was determined as 0.292; with Gemcitabine + Linsitinib (first compound 0.03162 µM), 0.197; with Gemcitabine + Linsitinib (first compound 0.1 µM), 0.18; with Gemcitabine + Lapatinib (first compound 0.001 µM), 0.499; in the assay with Gemcitabine + Lapatinib (first compound 0.003162 µM) it was 0.468; with Gemcitabine + Lapatinib (first compound 0.01 µM), 0.295. Moreover, the values for the relative viability with Gemcitabine + Lapatinib (first compound 0.03162 µM) and with Gemcitabine + Lapatinib (first compound 0.1 µM) were 0.201 and 0.203, respectively.
For the cell line SW 1573, the relative viability with Gemcitabine + OSI-027 (first compound 0.001 µM) stood at 0.512; in the assay with Gemcitabine + OSI-027 (first compound 0.003162 µM) it was 0.381; with Gemcitabine + OSI-027 (first compound 0.01 µM), 0.0711; with Gemcitabine + OSI-027 (first compound 0.03162 µM), 0.0797; with Gemcitabine + OSI-027 (first compound 0.1 µM), 0.0431; in the assay with Gemcitabine + Trametinib (first compound 0.001 µM), 0.46. For the same cell line, the relative viability came to 0.405 with Gemcitabine + Trametinib (first compound 0.003162 µM); 0.117 with Gemcitabine + Trametinib (first compound 0.01 µM); 0.0639 in the assay with Gemcitabine + Trametinib (first compound 0.03162 µM); 0.0615 with Gemcitabine + Trametinib (first compound 0.1 µM); 0.904 with Gemcitabine + Linsitinib (first compound 0.001 µM); 0.726 with Gemcitabine + Linsitinib (first compound 0.003162 µM). The relative viability in the assay with Gemcitabine + Linsitinib (first compound 0.01 µM) worked out at 0.148; in the assay with Gemcitabine + Linsitinib (first compound 0.03162 µM) it was 0.127; with Gemcitabine + Linsitinib (first compound 0.1 µM), 0.0847; with Gemcitabine + Lapatinib (first compound 0.001 µM), 1.07; with Gemcitabine + Lapatinib (first compound 0.003162 µM) it was 0.994; with Gemcitabine + Lapatinib (first compound 0.01 µM) it was 0.681. Moreover, the results for the relative viability with Gemcitabine + Lapatinib (first compound 0.03162 µM) and with Gemcitabine + Lapatinib (first compound 0.1 µM) were 0.148 and 0.082, respectively.
As to UMC-11, the relative viability with Gemcitabine + OSI-027 (first compound 0.001 µM) is 0.474; in the assay with Gemcitabine + OSI-027 (first compound 0.003162 µM), 0.474; with Gemcitabine + OSI-027 (first compound 0.01 µM), 0.478; with Gemcitabine + OSI-027 (first compound 0.03162 µM), 0.352; with Gemcitabine + OSI-027 (first compound 0.1 µM), 0.197; with Gemcitabine + Trametinib (first compound 0.001 µM), 0.627. Besides, the relative viability turned out to be 0.635 with Gemcitabine + Trametinib (first compound 0.003162 µM); 0.716 with Gemcitabine + Trametinib (first compound 0.01 µM); 0.609 with Gemcitabine + Trametinib (first compound 0.03162 µM); 0.161 with Gemcitabine + Trametinib (first compound 0.1 µM); 0.993 in the assay with Gemcitabine + Linsitinib (first compound 0.001 µM); 1.03 in the assay with Gemcitabine + Linsitinib (first compound 0.003162 µM). For the same cell line, the relative viability in the assay with Gemcitabine + Linsitinib (first compound 0.01 µM) worked out at 0.963; in the assay with Gemcitabine + Linsitinib (first compound 0.03162 µM), 0.956; in the assay with Gemcitabine + Linsitinib (first compound 0.1 µM), 0.382; with Gemcitabine + Lapatinib (first compound 0.001 µM) it was 1.04; with Gemcitabine + Lapatinib (first compound 0.003162 µM), 1.06; in the assay with Gemcitabine + Lapatinib (first compound 0.01 µM), 0.98. Further, the relative viability with Gemcitabine + Lapatinib (first compound 0.03162 µM) is 0.879; with Gemcitabine + Lapatinib (first compound 0.1 µM) it was 0.208.
